According to patent US20120142705A1, “ISATIN AND OXINDOLE COMPOUNDS” (priority 2010, published 2012):

The compounds below were run against T1, Recombinant human liver GK1 (GST-GK) (Homo sapiens, UniProt P35557) (assay: In vitro glucokinase activity, G6PDH-coupled spectrophotometric assay). Conditions: 5 mM D-glucose, 30° C., pH 7.1.
T1 construct: made in house; host or cells: E. coli
T1 sequence (P35557 1-466 isoform P35557-2): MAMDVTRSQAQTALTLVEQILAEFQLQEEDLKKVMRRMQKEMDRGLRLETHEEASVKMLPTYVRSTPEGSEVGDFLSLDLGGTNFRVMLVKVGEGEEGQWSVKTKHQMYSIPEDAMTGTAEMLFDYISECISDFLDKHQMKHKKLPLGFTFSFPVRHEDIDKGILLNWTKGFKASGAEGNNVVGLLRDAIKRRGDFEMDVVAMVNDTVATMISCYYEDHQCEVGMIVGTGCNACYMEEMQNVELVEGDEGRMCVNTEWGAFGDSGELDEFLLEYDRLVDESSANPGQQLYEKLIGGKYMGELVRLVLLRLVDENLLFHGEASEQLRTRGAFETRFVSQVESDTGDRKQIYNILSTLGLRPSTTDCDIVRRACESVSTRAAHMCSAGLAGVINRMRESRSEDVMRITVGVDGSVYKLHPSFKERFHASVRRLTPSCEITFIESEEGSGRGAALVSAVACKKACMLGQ
Format: biochemical
Method: Glucokinase In Vitro Assay Protocol: Glucokinase (GK) was assayed by coupling the production of glucose-6-phosphate to the generation of NADH with glucose-6-phosphate dehydrogenase (G6PDH, 0.75-1 kunits/mg; Boehringer Mannheim, Indianapolis, Ind.) from Leuconostoc mesenteroides as the coupling enzyme (Scheme 2).
Recombinant human liver GK1 was expressed in E. coli as a glutathione S-transferase fusion protein (GST-GK) [Liang et al, 1995] and was purified by chromatography over a glutathione-Sepharose 4B affinity column using the procedure provided by the manufacturer (Amersham Pharmacia Biotech, Piscataway, N.J.).
The assay was conducted at 30° C. in a flat bottom 96-well tissue culture plate from Costar (Cambridge, Mass.) with a final incubation volume of 120 μL. The incubation reaction contained the following: 25 mM Hepes buffer (pH 7.1), 25 mM KCl, 5 mM D-glucose, 1 mM ATP, 1.8 mM NAD, 2 mM MgCl2, 1 μM sorbitol-6-phosphate, 1 mM dithiothreitol, test drug or 10% dimethylsulfoxide, ˜7 units/ml G6PDH, and GK (see below). All organic reagents were >98% pure and were from Boehringer Mannheim with the exceptions of D-glucose and Hepes which were from Sigma Chemical Co, St Louis, Mo. Test compounds were dissolved in dimethylsulfoxide and were added to the incubation reaction minus GST-GK in a volume of 12 μL to yield a final dimethylsulfoxide concentration of 10%. This mix was pre-incubated in the temperature controlled chamber of a SPECTRAmax 250 microplate spectrophotometer (Molecular Devices Corporation, Sunnyvale, Calif.) for 10 minutes to allow temperature equilibrium and then the reaction was started by the addition of 20 μL GST-GK.
After addition of enzyme, the increase in optical density (OD) at 340 nm was monitored spectrophotometrically to determine the rate of change (OD340 per min). The GK activity (OD340/min) in control wells (10% dimethylsulfoxide minus GK activators) was compared with the activity in wells containing test GK activators, and the concentration of activator that produced a 50% increase in the activity of GK, i.e., the SC1.5, was calculated.

Row | SMILES | SC1.5 (concentration of activator that produced a 50% increase in the activity of GK) [µM]
1 | CC(C)CC(C(=O)Nc1ccccn1)N1C(=O)Cc2c(Cl)cccc21 (stereo not shown) [Example 26, 2-(4-Chloro-2-oxo-2,3-dihydro-indol-1-yl)-4-methyl-pentanoic acid pyridin-2-ylamide] | 6.77
2 | CC(C)CC(C(=O)Nc1nccs1)N1C(=O)Cc2c(Cl)cccc21 (stereo not shown) [Example 28, 2-(4-Chloro-2-oxo-2,3-dihydro-indol-1-yl)-4-methyl-pentanoic acid thiazol-2-ylamide] | 9.95
3 | O=C1C(=O)N(C(CC2CCCC2)C(=O)Nc2cnccn2)c2ccc(OC(F)(F)F)cc21 (stereo not shown) [Example 29, 3-Cyclopentyl-2-(2,3-dioxo-5-trifluoromethoxy-2,3-dihydro-indol-1-yl)-N-pyrazin-2-yl-propionamide] | 1.5
4 | O=C1C(=O)N(C(CC2CCCC2)C(=O)Nc2ccccn2)c2ccc(OC(F)(F)F)cc21 (stereo not shown) [Example 30, 3-Cyclopentyl-2-(2,3-dioxo-5-trifluoromethoxy-2,3-dihydro-indol-1-yl)-N-pyridin-2-yl-propionamide] | 0.33
5 | Cn1ccc(NC(=O)C(CC2CCCC2)N2C(=O)C(=O)c3cc(OC(F)(F)F)ccc32)n1 (stereo not shown) [Example 31, 3-Cyclopentyl-2-(2,3-dioxo-5-trifluoromethoxy-2,3-dihydro-indol-1-yl)-N-(1-methyl-1H-pyrazol-3-yl)-propionamide] | 1.65
6 | O=C1C(=O)N(C(CC2CCCC2)C(=O)Nc2nccs2)c2ccc(OC(F)(F)F)cc21 (stereo not shown) [Example 32, 3-Cyclopentyl-2-(2,3-dioxo-5-trifluoromethoxy-2,3-dihydro-indol-1-yl)-N-thiazol-2-yl-propionamide] | 0.76
7 | O=C(Nc1ccccn1)C(CC1CCCC1)N1C(=O)Cc2cc(OC(F)(F)F)ccc21 (stereo not shown) [Example 33, 3-Cyclopentyl-2-(2-oxo-5-trifluoromethoxy-2,3-dihydro-indol-1-yl)-N-pyridin-2-yl-propionamide] | 0.13
8 | Cn1ccc(NC(=O)C(CC2CCCC2)N2C(=O)Cc3cc(OC(F)(F)F)ccc32)n1 (stereo not shown) [Example 34, 3-Cyclopentyl-N-(1-methyl-1H-pyrazol-3-yl)-2-(2-oxo-5-trifluoromethoxy-2,3-dihydro-indol-1-yl)-propionamide] | 1.07
9 | O=C(Nc1nccs1)C(CC1CCCC1)N1C(=O)Cc2cc(OC(F)(F)F)ccc21 (stereo not shown) [Example 35, 3-Cyclopentyl-2-(2-oxo-5-trifluoromethoxy-2,3-dihydro-indol-1-yl)-N-thiazol-2-yl-propionamide] | 0.49
10 | O=C(Nc1cnccn1)C(CC1CCCC1)N1C(=O)Cc2cc(OC(F)(F)F)ccc21 (stereo not shown) [Example 36, 3-Cyclopentyl-2-(2-oxo-5-trifluoromethoxy-2,3-dihydro-indol-1-yl)-N-pyrazin-2-yl-propionamide] | 0.63
11 | CC(C)CC(C(=O)Nc1cnccn1)N1C(=O)C(=O)c2cc(OC(F)(F)F)ccc21 (stereo not shown) [Example 37, 2-(2,3-Dioxo-5-trifluoromethoxy-2,3-dihydro-indol-1-yl)-4-methyl-pentanoic acid pyrazin-2-ylamide] | 19.72
12 | CC(C)CC(C(=O)Nc1ccccn1)N1C(=O)C(=O)c2cc(OC(F)(F)F)ccc21 (stereo not shown) [Example 38, 2-(2,3-Dioxo-5-trifluoromethoxy-2,3-dihydro-indol-1-yl)-4-methyl-pentanoic acid pyridin-2-ylamide] | 2.57
13 | CC(C)CC(C(=O)Nc1ccn(C)n1)N1C(=O)C(=O)c2cc(OC(F)(F)F)ccc21 (stereo not shown) [Example 39, 2-(2,3-Dioxo-5-trifluoromethoxy-2,3-dihydro-indol-1-yl)-4-methyl-pentanoic acid (1-methyl-1H-pyrazol-3-yl)-amide] | 21.28
14 | CC(C)CC(C(=O)Nc1nccs1)N1C(=O)C(=O)c2cc(OC(F)(F)F)ccc21 (stereo not shown) [Example 40, 2-(2,3-Dioxo-5-trifluoromethoxy-2,3-dihydro-indol-1-yl)-4-methyl-pentanoic acid thiazol-2-ylamide] | 5.97
15 | CC(C)CC(C(=O)Nc1nccs1)N1C(=O)Cc2cc(OC(F)(F)F)ccc21 (stereo not shown) [Example 41, 4-Methyl-2-(2-oxo-5-trifluoromethoxy-2,3-dihydro-indol-1-yl)-pentanoic acid thiazol-2-ylamide] | 2.81
16 | CC(C)CC(C(=O)Nc1ccn(C)n1)N1C(=O)Cc2cc(OC(F)(F)F)ccc21 (stereo not shown) [Example 42, 4-Methyl-2-(2-oxo-5-trifluoromethoxy-2,3-dihydro-indol-1-yl)-pentanoic acid (1-methyl-1H-pyrazol-3-yl)-amide] | 8.12
17 | CC(C)CC(C(=O)Nc1ccccn1)N1C(=O)Cc2cc(OC(F)(F)F)ccc21 (stereo not shown) [Example 43, 4-Methyl-2-(2-oxo-5-trifluoromethoxy-2,3-dihydro-indol-1-yl)-pentanoic acid pyridin-2-ylamide] | 1.41
18 | CC(C)CC(C(=O)Nc1cnccn1)N1C(=O)Cc2cc(OC(F)(F)F)ccc21 (stereo not shown) [Example 44, 4-Methyl-2-(2-oxo-5-trifluoromethoxy-2,3-dihydro-indol-1-yl)-pentanoic acid pyrazin-2-ylamide] | 3.67
19 | COc1ccc2c(c1)C(=O)C(=O)N2C(CC1CCCC1)C(=O)Nc1cnccn1 (stereo not shown) [Example 45, 3-Cyclopentyl-2-(5-methoxy-2,3-dioxo-2,3-dihydro-indol-1-yl)-N-pyrazin-2-yl-propionamide] | 12.29
20 | COc1ccc2c(c1)C(=O)C(=O)N2C(CC1CCCC1)C(=O)Nc1ccccn1 (stereo not shown) [Example 46, 3-Cyclopentyl-2-(5-methoxy-2,3-dioxo-2,3-dihydro-indol-1-yl)-N-pyridin-2-yl-propionamide] | 2.32
21 | COc1ccc2c(c1)C(=O)C(=O)N2C(CC1CCCC1)C(=O)Nc1ccn(C)n1 (stereo not shown) [Example 47, 3-Cyclopentyl-2-(5-methoxy-2,3-dioxo-2,3-dihydro-indol-1-yl)-N-(1-methyl-1H-pyrazol-3-yl)-propionamide] | 23.88
22 | COc1ccc2c(c1)C(=O)C(=O)N2C(CC1CCCC1)C(=O)Nc1nccs1 (stereo not shown) [Example 48, 3-Cyclopentyl-2-(5-methoxy-2,3-dioxo-2,3-dihydro-indol-1-yl)-N-thiazol-2-yl-propionamide] | 5.48
23 | COc1ccc2c(c1)CC(=O)N2C(CC1CCCC1)C(=O)Nc1ccccn1 (stereo not shown) [Example 49, 3-Cyclopentyl-2-(5-methoxy-2-oxo-2,3-dihydro-indol-1-yl)-N-pyridin-2-yl-propionamide] | 1.74
24 | COc1ccc2c(c1)CC(=O)N2C(CC1CCCC1)C(=O)Nc1ccn(C)n1 (stereo not shown) [Example 50, 3-Cyclopentyl-2-(5-methoxy-2-oxo-2,3-dihydro-indol-1-yl)-N-(1-methyl-1H-pyrazol-3-yl)-propionamide] | 8.39

Same assay, conditions: @ 30 uM; 5 mM D-glucose, 30° C.

Row | SMILES | fold induction at 30 µM
25 | CC(C)CC(C(=O)Nc1ccn(C)n1)N1C(=O)Cc2c(Cl)cccc21 (stereo not shown) [Example 27, 2-(4-Chloro-2-oxo-2,3-dihydro-indol-1-yl)-4-methyl-pentanoic acid (1-methyl-1H-pyrazol-3-yl)-amide] | 1.39
